# Key:
# [1] = Intrinsic clearance in Rhesus monkey at 0.1 mg/kg, iv by LC-MS/MS analysis; format: ADME, organism-based, Macaca mulatta; details: in vivo
# [2] = Unbound brain-to-plasma concentration ratio in rat at 2.5 uM incubated for 4 hrs by equilibrium dialysis method; format: ADME, cell-free; details: brain and plasma (unbound), read-out: K(p,uu,brain)
# rat Mdr1a (P-gp) [3] = test: Efflux ratio of apparent permeability across basolateral to apical side over apical to basolateral side in rat Mdr1a-transfected pig LLC-PK1 cells at 0.1 to 1 uM measured after 3 hrs by LC/MS/MS analysis; format: ADME, cell-based, Sus scrofa; details: dose 0.1-1 µM
# rat Mdr1a (P-gp) [4] = test: Apparent permeability from apical to basolateral side in rat Mdr1a-transfected pig LLC-PK1 cells at 0.1 to 1 uM measured after 3 hrs by LC/MS/MS analysis; format: ADME, cell-based, Sus scrofa; details: dose 0.1-1 µM
# [5] = Intrinsic clearance in human hepatocytes at 0.3 uM incubated for 90 mins by LC/MS/MS analysis; format: ADME, cell-based, Hepatocyte; details: read-out: CLH
# [6] = Intrinsic clearance in rat hepatocytes at 0.3 uM incubated for 90 mins by LC/MS/MS analysis; format: ADME, cell-based, Hepatocyte; details: read-out: CLH
# [7] = Total plasma clearance in Wistar Han rat at 2 mg/kg, iv by LC-MS/MS analysis; format: ADME, organism-based
# [8] = Intrinsic clearance in Wistar Han rat at 2 mg/kg, iv by LC-MS/MS analysis; format: ADME, organism-based; details: in vivo
# [9] = MRT in Wistar Han rat at 2 mg/kg, iv by LC-MS/MS analysis; format: ADME, organism-based; details: in vivo
# [10] = Intrinsic clearance in dog hepatocytes at 0.3 uM incubated for 90 mins by LC/MS/MS analysis; format: ADME, cell-based, Canis lupus familiaris, Hepatocyte; details: read-out: CLH
# [11] = Total plasma clearance in Beagle dog at 0.25 mg/kg, iv by LC-MS/MS analysis; format: ADME, organism-based, Canis lupus familiaris
# [12] = Intrinsic clearance in Beagle dog at 0.25 mg/kg, iv by LC-MS/MS analysis; format: ADME, organism-based, Canis lupus familiaris; details: in vivo
# [13] = MRT in Beagle dog at 0.25 mg/kg, iv by LC-MS/MS analysis; format: ADME, organism-based, Canis lupus familiaris; details: in vivo
# [14] = Oral bioavailability in Wistar Han rat at 10 mg/kg by LC-MS/MS analysis; format: ADME, organism-based; details: in vivo
# [15] = Oral bioavailability in Beagle dog at 0.5 mg/kg by LC-MS/MS analysis; format: ADME, organism-based, Canis lupus familiaris; details: in vivo
# mouse Bcrp [16] = test: Efflux ratio of apparent permeability across basolateral to apical over apical to basolateral side in mouse Bcrp-transfected dog MDCK-II cells at 0.1 to 1 uM measured after 3 hrs by LC/MS/MS analysis; format: ADME, cell-based, Canis lupus familiaris; details: dose 0.1-1 µM
# [17] = target: Voltage-gated inwardly rectifying potassium channel KCNH2 (Homo sapiens, UniProt Q12809); test: Inhibition of human ERG by voltage clamp assay; format: toxicity
# Sequence of Voltage-gated inwardly rectifying potassium channel KCNH2 (Q12809 whole entry): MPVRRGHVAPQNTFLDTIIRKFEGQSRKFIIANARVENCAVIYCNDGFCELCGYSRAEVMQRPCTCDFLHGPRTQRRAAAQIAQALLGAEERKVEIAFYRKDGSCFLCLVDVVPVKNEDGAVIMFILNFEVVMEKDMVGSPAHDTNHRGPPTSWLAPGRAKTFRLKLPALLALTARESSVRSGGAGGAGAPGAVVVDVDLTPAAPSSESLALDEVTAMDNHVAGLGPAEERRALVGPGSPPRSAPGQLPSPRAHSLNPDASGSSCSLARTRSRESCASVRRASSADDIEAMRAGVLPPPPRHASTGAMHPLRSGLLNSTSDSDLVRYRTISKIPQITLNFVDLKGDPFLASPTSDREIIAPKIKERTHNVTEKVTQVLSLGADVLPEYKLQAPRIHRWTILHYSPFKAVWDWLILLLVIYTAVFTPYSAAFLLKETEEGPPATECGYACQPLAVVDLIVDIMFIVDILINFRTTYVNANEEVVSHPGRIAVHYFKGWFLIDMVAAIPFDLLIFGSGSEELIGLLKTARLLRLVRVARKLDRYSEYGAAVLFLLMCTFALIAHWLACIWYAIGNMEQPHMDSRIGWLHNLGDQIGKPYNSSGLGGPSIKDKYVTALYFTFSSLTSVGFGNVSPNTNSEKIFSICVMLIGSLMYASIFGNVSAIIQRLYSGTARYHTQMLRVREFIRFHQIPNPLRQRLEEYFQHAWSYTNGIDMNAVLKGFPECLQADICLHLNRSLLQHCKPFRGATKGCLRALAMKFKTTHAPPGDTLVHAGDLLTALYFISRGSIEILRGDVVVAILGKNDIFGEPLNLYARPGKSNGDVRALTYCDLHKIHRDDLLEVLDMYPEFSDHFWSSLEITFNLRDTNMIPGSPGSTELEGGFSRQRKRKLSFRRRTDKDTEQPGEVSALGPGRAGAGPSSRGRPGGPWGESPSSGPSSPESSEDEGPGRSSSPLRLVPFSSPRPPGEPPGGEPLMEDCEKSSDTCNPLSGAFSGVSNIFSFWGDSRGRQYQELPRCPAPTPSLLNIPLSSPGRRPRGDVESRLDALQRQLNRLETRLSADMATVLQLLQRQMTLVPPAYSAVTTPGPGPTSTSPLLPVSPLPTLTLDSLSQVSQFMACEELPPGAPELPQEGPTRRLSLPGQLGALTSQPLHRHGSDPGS
# Salmonella typhimurium [18] = test: Mutagenicity in Salmonella typhimurium TA1535 at 30 to 5000 ug incubated for 48 hrs in presence of liver S9 fraction by AMES test; format: toxicity, organism-based, Salmonella enterica subsp. enterica serovar Typhimurium; details: s9, 48 h, dose 30-5000 µg
# Salmonella typhimurium [19] = test: Mutagenicity in Salmonella typhimurium TA98 at 30 to 5000 ug incubated for 48 hrs in presence of liver S9 fraction by AMES test; format: toxicity, organism-based, Salmonella enterica subsp. enterica serovar Typhimurium; details: s9, 48 h, dose 30-5000 µg
# Salmonella typhimurium [20] = test: Mutagenicity in Salmonella typhimurium TA100 at 30 to 5000 ug incubated for 48 hrs in presence of liver S9 fraction by AMES test; format: toxicity, organism-based, Salmonella enterica subsp. enterica serovar Typhimurium; details: s9, 48 h, dose 30-5000 µg
# [21] = target: Leucine-rich repeat serine/threonine-protein kinase 2 (Homo sapiens) (UniProt Q5S007); test: Ex vivo inhibition of LRRK2 in human PBMC assessed as unbound concentration required for reduction in LRRK2 phosphorylation at Ser935 residue incubated for 90 mins by MSD assay; format: cell-based
# Sequence of Leucine-rich repeat serine/threonine-protein kinase 2 (Homo sapiens) (Q5S007 whole entry): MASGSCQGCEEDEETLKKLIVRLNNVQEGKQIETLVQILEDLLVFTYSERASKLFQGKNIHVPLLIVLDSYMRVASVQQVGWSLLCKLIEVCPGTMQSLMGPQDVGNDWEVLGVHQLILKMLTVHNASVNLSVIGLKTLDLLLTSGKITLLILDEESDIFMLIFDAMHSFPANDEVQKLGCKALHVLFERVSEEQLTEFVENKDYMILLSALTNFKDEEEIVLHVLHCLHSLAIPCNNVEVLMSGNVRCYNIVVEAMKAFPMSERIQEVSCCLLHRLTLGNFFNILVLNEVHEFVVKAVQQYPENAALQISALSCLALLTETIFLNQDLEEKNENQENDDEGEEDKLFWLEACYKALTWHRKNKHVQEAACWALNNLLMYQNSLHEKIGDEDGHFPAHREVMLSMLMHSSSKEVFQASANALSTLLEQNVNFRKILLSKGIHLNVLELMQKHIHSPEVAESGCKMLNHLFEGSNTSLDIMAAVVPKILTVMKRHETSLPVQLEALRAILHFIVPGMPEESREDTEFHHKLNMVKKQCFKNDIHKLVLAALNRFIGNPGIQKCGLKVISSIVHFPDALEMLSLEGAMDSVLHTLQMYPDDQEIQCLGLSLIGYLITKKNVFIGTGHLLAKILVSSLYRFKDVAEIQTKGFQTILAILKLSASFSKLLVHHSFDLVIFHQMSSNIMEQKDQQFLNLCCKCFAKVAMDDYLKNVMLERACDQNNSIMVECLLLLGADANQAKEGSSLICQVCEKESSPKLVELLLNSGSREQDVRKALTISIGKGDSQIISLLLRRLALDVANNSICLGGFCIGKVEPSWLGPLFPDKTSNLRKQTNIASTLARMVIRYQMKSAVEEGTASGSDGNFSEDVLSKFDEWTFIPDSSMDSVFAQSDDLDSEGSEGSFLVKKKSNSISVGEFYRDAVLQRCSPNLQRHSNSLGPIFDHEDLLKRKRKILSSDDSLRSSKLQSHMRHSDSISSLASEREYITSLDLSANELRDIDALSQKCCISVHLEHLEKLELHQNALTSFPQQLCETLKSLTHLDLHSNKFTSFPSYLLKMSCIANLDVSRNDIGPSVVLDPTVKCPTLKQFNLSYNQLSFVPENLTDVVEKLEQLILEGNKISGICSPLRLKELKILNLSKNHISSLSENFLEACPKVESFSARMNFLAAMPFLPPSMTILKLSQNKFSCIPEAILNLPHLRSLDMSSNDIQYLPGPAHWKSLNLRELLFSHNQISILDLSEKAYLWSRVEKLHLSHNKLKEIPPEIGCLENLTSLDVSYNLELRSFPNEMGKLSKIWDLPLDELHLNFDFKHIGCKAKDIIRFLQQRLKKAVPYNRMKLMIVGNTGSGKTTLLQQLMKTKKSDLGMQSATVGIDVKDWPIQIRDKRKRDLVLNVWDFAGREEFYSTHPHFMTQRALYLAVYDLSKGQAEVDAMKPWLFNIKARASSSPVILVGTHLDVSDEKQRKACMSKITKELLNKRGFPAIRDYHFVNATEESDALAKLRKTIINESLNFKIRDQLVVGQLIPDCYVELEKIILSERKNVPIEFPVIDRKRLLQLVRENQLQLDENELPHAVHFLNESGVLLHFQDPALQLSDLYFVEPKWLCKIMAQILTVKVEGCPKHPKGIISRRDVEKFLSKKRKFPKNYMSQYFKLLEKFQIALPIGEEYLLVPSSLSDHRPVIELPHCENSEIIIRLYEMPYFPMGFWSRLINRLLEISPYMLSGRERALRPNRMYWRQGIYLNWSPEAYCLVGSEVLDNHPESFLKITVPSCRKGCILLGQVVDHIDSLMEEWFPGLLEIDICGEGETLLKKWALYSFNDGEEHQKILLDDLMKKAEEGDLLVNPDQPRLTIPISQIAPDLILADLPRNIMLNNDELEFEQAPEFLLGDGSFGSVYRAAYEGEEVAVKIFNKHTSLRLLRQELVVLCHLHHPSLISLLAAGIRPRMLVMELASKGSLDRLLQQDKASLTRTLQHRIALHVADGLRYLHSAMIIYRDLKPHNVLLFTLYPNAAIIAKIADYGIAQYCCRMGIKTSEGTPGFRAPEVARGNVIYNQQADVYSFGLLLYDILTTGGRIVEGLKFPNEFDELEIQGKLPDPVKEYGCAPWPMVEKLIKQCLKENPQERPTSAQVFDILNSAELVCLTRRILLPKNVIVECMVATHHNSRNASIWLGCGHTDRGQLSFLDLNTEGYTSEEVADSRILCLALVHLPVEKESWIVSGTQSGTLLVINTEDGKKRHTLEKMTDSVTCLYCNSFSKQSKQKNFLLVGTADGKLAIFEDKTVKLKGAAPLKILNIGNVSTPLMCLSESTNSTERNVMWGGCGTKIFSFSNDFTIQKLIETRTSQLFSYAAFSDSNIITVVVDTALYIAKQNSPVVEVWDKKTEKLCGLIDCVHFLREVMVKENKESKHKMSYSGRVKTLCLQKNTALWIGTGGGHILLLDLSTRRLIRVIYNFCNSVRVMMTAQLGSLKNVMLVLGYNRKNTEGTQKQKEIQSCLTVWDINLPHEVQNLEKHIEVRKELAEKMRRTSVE
# [22] = Thermodynamic solubility of the compound in FaSSIF measured after 24 hrs by reverse phase UPLC analysis; format: physicochemical; details: read-out: Therm_solubility
# mouse Bcrp [23] = test: Apparent permeability in mouse Bcrp-transfected dog MDCK-II cells at 0.1 to 1 uM measured after 3 hrs by LC/MS/MS analysis; format: ADME, cell-based, Canis lupus familiaris; details: dose 0.1-1 µM
# [24] = Total plasma clearance in Rhesus monkey at 0.1 mg/kg, iv by LC-MS/MS analysis; format: ADME, organism-based, Macaca mulatta
# [25] = MRT in Rhesus monkey at 0.1 mg/kg, iv by LC-MS/MS analysis; format: ADME, organism-based, Macaca mulatta; details: in vivo
# [26] = target: MAP/microtubule affinity-regulating kinase 3 (Homo sapiens, UniProt P27448); test: Inhibition of MARK3 (unknown origin)
# Sequence of MAP/microtubule affinity-regulating kinase 3 (P27448 whole entry): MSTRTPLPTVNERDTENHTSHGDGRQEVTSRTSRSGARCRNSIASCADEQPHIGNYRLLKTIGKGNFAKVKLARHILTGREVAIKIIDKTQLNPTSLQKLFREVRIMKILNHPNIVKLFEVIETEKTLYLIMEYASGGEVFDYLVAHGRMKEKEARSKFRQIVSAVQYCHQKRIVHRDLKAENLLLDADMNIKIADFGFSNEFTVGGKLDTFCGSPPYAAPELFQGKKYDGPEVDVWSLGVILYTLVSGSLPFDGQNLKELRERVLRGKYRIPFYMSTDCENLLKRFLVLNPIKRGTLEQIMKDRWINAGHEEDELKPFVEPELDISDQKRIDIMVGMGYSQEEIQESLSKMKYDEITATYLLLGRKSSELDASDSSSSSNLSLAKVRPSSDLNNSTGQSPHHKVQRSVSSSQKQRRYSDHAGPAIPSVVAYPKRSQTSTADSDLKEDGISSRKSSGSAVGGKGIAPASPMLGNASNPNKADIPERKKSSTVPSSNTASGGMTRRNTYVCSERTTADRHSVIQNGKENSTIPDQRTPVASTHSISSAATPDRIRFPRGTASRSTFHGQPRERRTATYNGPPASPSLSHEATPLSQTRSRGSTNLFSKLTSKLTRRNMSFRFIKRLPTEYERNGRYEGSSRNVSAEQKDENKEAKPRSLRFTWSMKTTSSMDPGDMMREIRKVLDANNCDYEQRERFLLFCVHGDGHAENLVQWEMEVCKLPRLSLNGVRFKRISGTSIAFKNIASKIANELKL
# [27] = Toxicity in rat assessed as drug tolerability at 10 to 75 mg/kg, po bid administered for 4 days; format: organism-based; details: in vivo, 96 h, dose 10-75 mg/kg, time 4 day
# [28] = AUC in rat at 10 to 75 mg/kg, po bid administered for 4 days; format: ADME, organism-based; parameters: time 4 day; details: in vivo, 96 h, dose 10-75 mg/kg
# CYP1A1 = test: Toxicity in rat assessed as fold induction of CYP1A1 transcriptional activity in liver at 10 to 75 mg/kg, po bid administered for 4 days relative to control; format: organism-based; details: dose 10-75 mg/kg, time 4 day, read-out: FC
# GSTA5 = test: Toxicity in rat assessed as fold increase in GSTA5 transcriptional activity in liver at 75 mg/kg, po bid administered for 4 days relative to control; format: organism-based; details: time 4 day, read-out: FC
# UGT1A6 = test: Toxicity in rat assessed as fold increase in UGT1A6 transcriptional activity in liver at 75 mg/kg, po bid administered for 4 days relative to control; format: organism-based; details: time 4 day, read-out: FC
# [29] = Toxicity in rat assessed as elevation of PXR gene expression at 10 to 75 mg/kg, po bid administered for 4 days; format: organism-based; details: in vivo, 96 h, dose 10-75 mg/kg, time 4 day
# [30] = Toxicity in rat assessed as elevation of AhR gene expression at 10 to 75 mg/kg, po bid administered for 4 days; format: organism-based; details: in vivo, 96 h, dose 10-75 mg/kg, time 4 day
# [31] = Toxicity in rat assessed as elevation of inflammatory response related gene expression at 10 to 75 mg/kg, po bid administered for 4 days; format: organism-based; details: in vivo, 96 h, dose 10-75 mg/kg, time 4 day
# [32] = target: T1, Natriuretic peptides A (Homo sapiens) (UniProt P01160); test: Agonist activity at ANF (unknown origin) at 10 uM; details: filed as agonist
# T1 sequence (whole entry): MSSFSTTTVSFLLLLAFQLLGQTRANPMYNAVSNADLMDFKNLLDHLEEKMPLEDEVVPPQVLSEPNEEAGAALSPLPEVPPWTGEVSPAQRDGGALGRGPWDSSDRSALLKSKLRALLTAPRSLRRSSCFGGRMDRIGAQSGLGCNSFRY
# [33] = target: Leucine-rich repeat serine/threonine-protein kinase 2 (Homo sapiens, UniProt Q5S007, G2019S); test: Inhibition of recombinant N-terminal GST-fused LRRK2 […] mutant (970 to 2527 residues) (unknown origin) preincubated with enzyme for 15 mins followed by fluorescein-labeled LRRKtide peptide substrate and ATP addition for 90 mins by TR-FRET assay
# Sequence of Leucine-rich repeat serine/threonine-protein kinase 2 (Q5S007 whole entry G2019S, the tested form may be a part): as the sequence (Q5S007 whole entry) above, with G2019S counted along it
# [34] = tested on: Leucine-rich repeat serine/threonine-protein kinase 2 (Homo sapiens), Q5S007 [G2019S]; test: Inhibition of LRRK2 […] mutant expressed in human SH-SY5Y cells assessed as unbound concentration required for inhibition of phosphorylation of LRRK2 at Ser935 residue incubated for 90 mins by MSD assay; format: cell-based
# Sequence of Leucine-rich repeat serine/threonine-protein kinase 2 (Homo sapiens), Q5S007 [G2019S] (Q5S007 whole entry G2019S): as the sequence (Q5S007 whole entry) above, with G2019S counted along it
# Homo sapiens [35] = species on record: Homo sapiens; test: Selectivity ratio of IC50 for AURKA (unknown origin) to IC50 for LRRK2 (unknown origin)
# Homo sapiens [36] = species on record: Homo sapiens; test: Selectivity ratio of IC50 for MAP3K8 (unknown origin) to IC50 for LRRK2 (unknown origin)
# Homo sapiens [37] = species on record: Homo sapiens; test: Selectivity ratio of IC50 for PRKCZ (unknown origin) to IC50 for LRRK2 (unknown origin)
# [38] = target: T2, 5-hydroxytryptamine receptor 1A (Homo sapiens) (UniProt P08908); test: Inhibition of human 5HT1A receptor at 10 uM
# T2 sequence (whole entry): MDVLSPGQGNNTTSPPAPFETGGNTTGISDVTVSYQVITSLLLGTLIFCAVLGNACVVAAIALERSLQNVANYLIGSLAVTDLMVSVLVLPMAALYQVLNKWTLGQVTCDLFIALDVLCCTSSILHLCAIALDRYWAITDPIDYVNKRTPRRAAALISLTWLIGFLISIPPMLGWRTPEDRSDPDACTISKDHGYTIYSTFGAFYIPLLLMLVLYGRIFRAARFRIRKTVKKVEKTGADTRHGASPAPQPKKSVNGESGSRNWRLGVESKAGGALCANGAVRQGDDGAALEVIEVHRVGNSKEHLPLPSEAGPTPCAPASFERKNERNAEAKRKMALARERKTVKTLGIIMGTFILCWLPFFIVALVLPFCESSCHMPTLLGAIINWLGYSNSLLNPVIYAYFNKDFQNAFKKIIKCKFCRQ
# [39] = Toxicity in rat assessed as drug tolerability at 25 to 300 mg/kg, po qd administered for 4 days; format: organism-based; details: in vivo, 96 h, dose 25-300 mg/kg, time 4 day
# [40] = Toxicity in rat assessed as body weight loss at 300 mg/kg, po qd administered for 4 days; format: organism-based; details: in vivo, 96 h, time 4 day
# [41] = Toxicity in rat assessed as positive heart transcriptional score at 300 mg/kg, po qd administered for 4 days; format: organism-based; details: in vivo, 96 h, time 4 day
# [42] = Toxicity in rat assessed as positive liver transcriptional score at 300 mg/kg, po qd administered for 4 days; format: organism-based; details: in vivo, 96 h, time 4 day
# [43] = Toxicity in rat assessed as elevation of liver enzyme biomarker levels at 300 mg/kg, po qd administered for 4 days; format: organism-based; details: in vivo, 96 h, time 4 day
# [44] = In vivo inhibition of LRRK2 in po dosed CD rat assessed as unbound concentration required for reduction in phosphorylation at Ser935 residue in striatum measured after 2 hrs by MSD assay; format: functional
smiles,measurement,setting,value
Cc1c(Nc2ncc3cc(Cl)c(C4CCN([C@@H]5COC[C@@H]5O)CC4)cc3n2)cnn1[C@@H]1CC1(F)F,CL,[1],486 mL/min/kg
same,"Kp uu at 4 h, 2.5 µM",[2],0.43
same,"efflux ratio at 3 h, up to 1 µM",rat Mdr1a (P-gp) [3],4.3
same,"Papp A→B at 3 h, up to 1 µM",rat Mdr1a (P-gp) [4],31 ×10⁻⁶ cm/s
same,CLint scaled at 0.3 µM,[5],114 mL/min/kg
same,CLint scaled at 0.3 µM,[6],464 mL/min/kg
same,clearance,[7],28 mL/min/kg
same,CL,[8],480 mL/min/kg
same,MRT,[9],3.7 h
same,CLint scaled at 0.3 µM,[10],160 mL/min/kg
same,clearance,[11],15 mL/min/kg
same,CL,[12],205 mL/min/kg
same,MRT,[13],16 h
same,bioavailability,[14],64%
same,bioavailability,[15],65%
same,"efflux ratio at 3 h, up to 1 µM",mouse Bcrp [16],4.1
same,IC50,[17],6.2 µM
same,Activity,Salmonella typhimurium [18],Non-Toxic
same,Activity,Salmonella typhimurium [19],Non-Toxic
same,Activity,Salmonella typhimurium [20],Non-Toxic
same,fIC50,[21],2.6 nM
same,solubility thermodynamic at 24 h,[22],30 µg/mL
same,"Papp at 3 h, up to 1 µM",mouse Bcrp [23],30 ×10⁻⁶ cm/s
same,clearance,[24],29 mL/min/kg
same,MRT,[25],4.8 h
same,IC50,[26],5.7 µM
same,Activity,[27],Non-Toxic
same,AUC,[28],16 µM·h
same,fold induction at 96 h,CYP1A1,3
same,fold induction at 96 h,GSTA5,5
same,fold induction at 96 h,UGT1A6,2.5
same,Activity,[29],Non-Toxic
same,Activity,[30],Non-Toxic
same,Activity,[31],Non-Toxic
same,Activity,[32],60%
CC(C)(O)Cn1ncc(Nc2ncc3cc(Cl)c(C4CCN(C5COC5)CC4)cc3n2)c1Cl,"Kp uu at 4 h, 2.5 µM",[2],0.3
same,IC50,[33],0.0008 µM
same,fIC50,[34],58 nM
same,"efflux ratio at 3 h, up to 1 µM",rat Mdr1a (P-gp) [3],4.2
same,"Papp A→B at 3 h, up to 1 µM",rat Mdr1a (P-gp) [4],33 ×10⁻⁶ cm/s
same,CLint scaled at 0.3 µM,[5],132 mL/min/kg
same,CLint scaled at 0.3 µM,[6],311 mL/min/kg
same,clearance,[7],11 mL/min/kg
same,CL,[8],175 mL/min/kg
same,MRT,[9],2.7 h
same,CLint scaled at 0.3 µM,[10],150 mL/min/kg
same,clearance,[11],7 mL/min/kg
same,CL,[12],63 mL/min/kg
same,MRT,[13],7.8 h
same,bioavailability,[14],95%
same,bioavailability,[15],85%
same,"efflux ratio at 3 h, up to 1 µM",mouse Bcrp [16],4.2
same,IC50,[17],23 µM
same,Ratio IC50,Homo sapiens [35],< 100
same,Ratio IC50,Homo sapiens [36],< 100
same,Ratio IC50,Homo sapiens [37],< 100
same,inhibition,[38],> 50%
same,Activity,Salmonella typhimurium [18],Non-Toxic
same,Activity,Salmonella typhimurium [19],Non-Toxic
same,Activity,Salmonella typhimurium [20],Non-Toxic
same,Activity,[39],Non-Toxic
same,Activity,[40],11%
same,Activity,[41],Toxic
same,Activity,[42],Toxic
same,Activity,[43],Toxic
same,fIC50,[44],68 nM

# — ChEMBL document CHEMBL5042510, “Structure-Guided Discovery of Aminoquinazolines as Brain-Penetrant and Selective LRRK2 Inhibitors” (J Med Chem, 2022)
